Measured values: US5356915A, “Tetralones with pharmacological activity, compositions containing them” (J. Uriach & Cia. S.A., priority 1992, dated 1994)

Legend:
[1] = test system: noradrenaline induced contractions in isolated rat portal vein; experiment: Inhibition of noradrenaline induced contractions in isolated rat portal vein (Test 1); settings: 0.5 h, noradrenaline 3 μM, 30 min incubation, 37° C., pH 7.2, mean of at least two experiments
Procedure: Test 1: Inhibition of noradrenaline induced contractions in isolated rat portal vein.
Portal vein was extracted from adult male rats (b.w. 200-250 g), that had been stunned and exanguinated. Vein strips were suspended in an isolated organ bath (Letica) containing a physiological saline solution continuously bubbled with 5% CO2, 95% O2 gas at 37° C., pH 7.2. Contractions were induced by noradrenaline (3 μM) and were reverted after thorough washing with physiological saline solution. Portal vein contraction was measured with an isometric force transducer at an initial tension of 1 g. After two equal contractions with noradrenaline, performed in order to measure the tissue's basal response, the test compounds were incubated for 30 minutes and a new contraction was induced. The concentration that produces a 50% inhibition (IC50) versus the basal response was calculated. The experiment was repeated at least two times and the mean was calculated.

[2] = test system: arterial pressure in conscious spontaneously hypertensive rats; experiment: Lowering of the arterial pressure in conscious spontaneously hypertensive rats (Test 2); assay type: in vivo, rat; settings: conscious spontaneously hypertensive male rats, caudal artery, at least 4 animals
Procedure: Test 2: Lowering of the arterial pressure in conscious spontaneously hypertensive rats.
Spontaneously hypertensive male rats (b.w. 200-250 g) were used. Diastolic and systolic arterial pressure were measured at the caudal artery using a sphygnomanometer (Letica 5007 and 5007/4) attached to the animal's tail. To ensure rapid and reliable data, animals were placed on a heating plate at 37° C., with the aim of producing a vasodilatation that ensured better fixation of the rat tail to the transducer chamber. During the experiment, rats were conscious and fixed by a clamp. The test products were administered orally. Arterial pressure was measured every 60 minutes over a period of 4 hours and 10 minutes before the administration of the test compound. […]

[3] = test system: isolated guinea pig tracheal spirals; experiment: Direct relaxation of isolated guinea pig tracheal spirals (Test 3); settings: Cavia porcellus; 50% of maximum relaxation (isoproterenol 1×10^-6 M = maximum); isolated guinea pig tracheae; 37° C., pH 7.4; mean of at least two experiments
Procedure: Test 3 -Direct relaxation of isolated guinea pig tracheal spirals.
Tracheae were extracted from male guinea pigs of (b.w. 400 g) that had been stunned and exanguinated. Then, tracheae were cut in zigzag sections and placed in an isolated organ bath (Letica) containing Krebs-Henseleit solution at 37° C., pH 7.4, continuously bubbled with carbogen (95% O2 and 5% CO2). The relaxation of the tracheae was measured using an isometric force transducer. The basal tension was 0.5 g. The test compounds were cumulatively added to the bath and the effective concentration that produced 50% of the maximum relaxation (EC50) was calculated. The maximum relaxation was taken to be the relaxation induced by isoproterenol at 1×10^-6 M. The experiment was repeated at least two times and the mean was calculated.

Structure (SMILES)	IC50 [1]	Pressure Drop ± SEM ([2]; 1 mg/Kg p.o. (footnote *))	EC50 [3]	Pressure Drop ± SEM ([2]; 0.1 mg/Kg p.o.)
CC1(C)CC(c2cccc[n+]2[O-])c2cc(C#N)ccc2C1=O (racemic) [Compound 12, (±)-2,2-Dimethyl-4-(N-oxide-2-pyridyl)-1-oxo-1,2,3,4-tetrahydronaphthalen-6-carbonitrile]	200 nM	95 ± 9 mm Hg	3000 nM	–
CC1(C)C=C(c2cccc[n+]2[O-])c2cc(Cl)c(Cl)cc2C1=O [Compound 18]	500 nM	–	200 nM	74 ± 42 mm Hg
CC1(C)C=C(c2cccc[n+]2[O-])c2cc(Br)ccc2C1=O [Compound 4, 6-Bromo-1,2-dihydro-2,2-dimethyl-4-(N-oxide-2-pyridyl)naphthalen-1-one]	800 nM	–	200 nM	53 ± 8 mm Hg
CC1(C)C=C(c2cccc[n+]2[O-])c2cc(C#N)ccc2C1=O [Compound 10, 1,2-Dihydro-2,2-dimethyl-4-(N-oxide-2-pyridyl)-1-oxonaphthalen-6-carbonitrile]	900 nM	–	200 nM	53 ± 15 mm Hg
CC1(C)C=C(c2cccc[n+]2[O-])c2cc(C(F)(F)C(F)(F)F)ccc2C1=O [Compound 15, 1,2-Dihydro-2,2-dimethyl-4-(N-oxide-2-pyridyl)-6-pentafluoroethylnaphthalen-1-one]	600 nM	–	100 nM	98 ± 20 mm Hg
